The subject of this assay is rice blast fungi (Pyricularia oryze). In words: whole plant or invertebrate. The assay is classed as in vivo. The note with it: 144 h, read-out: protective value.

Regarding `COc1ccnc(C(=O)NC2CCCCCCCCCCC2)c1O` [Example 42, 3-Hydroxy-4-methoxy-N-cyclododecylpicolinamide], the pest or weed control at 100 ppm lay within 80 to 100%.

Take `COc1ccnc(C(=O)Nc2ccc3c(c2)OCCO3)c1O` [Example 51, 3-Hydroxy-4-methoxy-(3′,4′-ethylenedioxy)picolinanilide]: the pest or weed control at 100 ppm was 80 to 100%.

As to `COc1ccnc(C(=O)Nc2ccc(OC(F)(F)F)cc2)c1O` [Example 116, 3-Hydroxy-4-methoxy-4′-trifluoromethoxypicolinanilide], the pest or weed control at 100 ppm fell in the range of 80 to 100%.

Regarding `COc1ccnc(C(=O)NC(C)(C)c2ccccc2)c1O` [Example 70, 3-Hydroxy-4-methoxy-N-(1′-methyl-1′-phenylethyl)picolinamide], the pest or weed control at 100 ppm was in the range of 80 to 100%.

In the case of `COc1ccnc(C(=O)Nc2c(C)cc(Oc3ccccc3)cc2C)c1O` [Example 55, 3-Hydroxy-4-methoxy-2′,6′-dimethyl-4′-phenoxypicolinanilide], the pest or weed control at 100 ppm fell in the range of 80 to 100%.

For `COc1ccnc(C(=O)Nc2ccc(Oc3ccccc3)c(C(F)(F)F)c2)c1O` [Example 22, 3-Hydroxy-4-methoxy-4′-phenoxy-3′-trifluoromethylpicolinanilide], the pest or weed control at 100 ppm is 80 to 100%.

On to `COc1ccnc(C(=O)NC2CCCCCCC2)c1O` [Example 43, 3-Hydroxy-4-methoxy-N-cyclooctylpicolinamide], for which the pest or weed control at 100 ppm was in the range of 80 to 100%.

For the compound `COc1ccnc(C(=O)Nc2ccccc2)c1O` [Example 60, 3-Hydroxy-4-methoxypicolinanilide], the pest or weed control at 100 ppm lay within 80 to 100%.

Turning to `O=C(Nc1ccc(Oc2ccccc2)cc1)c1ncccc1O` [Example 1, 3-Hydroxy-4′-phenoxypicolinanilide], the pest or weed control at 100 ppm is 80 to 100%.

In the case of `COc1ccnc(C(=O)Nc2ccccc2Oc2ccccc2)c1O` [Example 12, 3-Hydroxy-4-methoxy-2′-phenoxypicolinanilide], the pest or weed control at 100 ppm was 80 to 100%.

Take `COc1ccnc(C(=O)NCc2ccc(Oc3ccccc3)cc2)c1O` [Example 71, 3-Hydroxy-4-methoxy-N-(4′-phenoxybenzyl)picolinamide]: the pest or weed control at 100 ppm is 80 to 100%.

As to `COc1ccnc(C(=O)NC(C)c2cccc3ccccc23)c1O` (stereo not shown) [Example 30, 3-Hydroxy-4-methoxy-N-(1′-(1-naphthyl)ethyl)picolinamide], the pest or weed control at 100 ppm lay within 80 to 100%.

Regarding `COc1ccnc(C(=O)Nc2ccc(Oc3ccccc3)c(Cl)c2)c1O` [Example 21, 3-Hydroxy-4-methoxy-3′-chloro-4′-phenoxypicolinanilide], the pest or weed control at 100 ppm lay in the range of 80 to 100%.

Turning to `COc1ccnc(C(=O)Nc2cc(C(C)(C)C)cc(C(C)(C)C)c2)c1O` [Example 38, 3-Hydroxy-4-methoxy-3′,5′-di-t-butylpicolinanilide], the pest or weed control at 100 ppm lay in the range of 80 to 100%.

For the compound `COc1ccnc(C(=O)Nc2ccc(F)cc2)c1O` [Example 120, 3-Hydroxy-4-methoxy-4′-fluoropicolinanilide], the pest or weed control at 100 ppm lay within 80 to 100%.

Regarding `COc1ccnc(C(=O)NC(C)c2ccccc2)c1O` (stereo not shown) [Example 69, 3-Hydroxy-4-methoxy-N-(1′-phenylethyl)picolinamide], the pest or weed control at 100 ppm fell in the range of 80 to 100%.

Take `COc1ccnc(C(=O)Nc2ccc(Cc3ccccc3)cc2)c1O` [Example 13, 3-Hydroxy-4-methoxy-4′-benzylpicolinanilide]: the pest or weed control at 100 ppm was in the range of 80 to 100%.

As to `COc1ccnc(C(=O)Nc2ccc(C3CCCCC3)cc2)c1O` [Example 49, 3-Hydroxy-4-methoxy-4′-cyclohexylpicolinanilide], the pest or weed control at 100 ppm lay within 80 to 100%.

For the compound `COc1ccnc(C(=O)NCCC2=CCCCC2)c1O` [Example 53, 3-Hydroxy-4-methoxy-N-(2′-(1-cyclohexenyl)ethyl)picolinamide], the pest or weed control at 100 ppm is 80 to 100%.

For `COc1ccnc(C(=O)Nc2ccc(C(F)(F)F)cc2)c1O` [Example 115, 3-Hydroxy-4-methoxy-4′-trifluoromethylpicolinanilide], the pest or weed control at 100 ppm is 80 to 100%.

For `COc1ccnc(C(=O)Nc2ccc(CC(C)(C)C)cc2)c1O` [Example 125, 3-Hydroxy-4-methoxy-4′-neopentylpicolinanilide], the pest or weed control at 100 ppm lay in the range of 80 to 100%.

In the case of `COc1ccnc(C(=O)NC2CCCCC2)c1O` [Example 59, 3-Hydroxy-4-methoxy-N-cyclohexylpicolinamide], the pest or weed control at 100 ppm was in the range of 80 to 100%.

Regarding `COc1ccnc(C(=O)NCC2CCCCC2)c1O` [Example 75, 3-Hydroxy-4-methoxy-N-(cyclohexylmethyl)picolinamide], the pest or weed control at 100 ppm fell in the range of 80 to 100%.

Consider `COc1ccnc(C(=O)Nc2ccc(Oc3ccccc3)c(C)c2)c1O` [Example 23, 3-Hydroxy-4-methoxy-3′-methyl-4′-phenoxypicolinanilide], for which the pest or weed control at 100 ppm lay within 80 to 100%.

Take `COc1ccnc(C(=O)NC2CCC2)c1O` [Example 81, 3-Hydroxy-4-methoxy-N-cyclobutylpicolinamide]: the pest or weed control at 100 ppm is 80 to 100%.

As to `COc1ccnc(C(=O)Nc2ccc(Oc3ccccc3)cc2)c1O` [Example 9, 3-Hydroxy-4-methoxy-4′-phenoxypicolinanilide], the pest or weed control at 100 ppm fell in the range of 80 to 100%.

Turning to `CCCCCCNC(=O)c1nccc(OC)c1O` [Example 83, 3-Hydroxy-4-methoxy-N-(n-hexyl)picolinamide], the pest or weed control at 100 ppm was 80 to 100%.

Regarding `COc1ccnc(C(=O)NCCC(C)(C)C)c1O` [Example 88, 3-Hydroxy-4-methoxy-N-(3′,3′-dimethylbutyl)picolinamide], the pest or weed control at 100 ppm is 80 to 100%.

On to `COc1ccnc(C(=O)Nc2ccccn2)c1O` [Example 126, 3-Hydroxy-4-methoxy-N-(2-pyridyl)picolinamide], for which the pest or weed control at 100 ppm lay in the range of 80 to 100%.

Turning to `COc1ccnc(C(=O)Nc2cccc(Oc3ccccc3)c2)c1O` [Example 11, 3-Hydroxy-4-methoxy-3′-phenoxypicolinanilide], the pest or weed control at 100 ppm lay in the range of 80 to 100%.

Take `COc1ccnc(C(=O)NCCC2CCCCC2)c1O` [Example 63, 3-Hydroxy-4-methoxy-N-(2′-cyclohexylethyl)picolinamide]: the pest or weed control at 100 ppm lay within 80 to 100%.

Take `COc1ccnc(C(=O)NC23CC4CC(CC(C4)C2)C3)c1O` [Example 45, 3-Hydroxy-4-methoxy-N-(1-adamantyl)picolinamide]: the pest or weed control at 100 ppm was 80 to 100%.

Consider `COc1ccnc(C(=O)Nc2ccc(Cl)cc2)c1O` [Example 61, 3-Hydroxy-4-methoxy-4′-chloropicolinanilide], for which the pest or weed control at 100 ppm was in the range of 80 to 100%.

Turning to `COc1ccnc(C(=O)Nc2ccc(C)cc2)c1O` [Example 123, 3-Hydroxy-4-methoxy-4′-methylpicolinanilide], the pest or weed control at 100 ppm was 80 to 100%.

Take `COc1ccnc(C(=O)NC2CCCCCC2)c1O` [Example 57, 3-Hydroxy-4-methoxy-N-cycloheptylpicolinamide]: the pest or weed control at 100 ppm was 80 to 100%.

Take `COc1ccnc(C(=O)Nc2ccc(C)cc2F)c1O` [Example 121, 3-Hydroxy-4-methoxy-2′-fluoro-4′-methylpicolin-anilide]: the pest or weed control at 100 ppm lay in the range of 80 to 100%.

Turning to `COc1ccnc(C(=O)NC2CCC(C)CC2)c1O` (stereo not shown) [Example 78, 3-Hydroxy-4-methoxy-N-(4′-methylcyclohexyl)picolinamide], the pest or weed control at 100 ppm was 80 to 100%.

Take `COc1ccnc(C(=O)Nc2ccc(C(C)(C)C)cc2)c1O` [Example 114, 3-Hydroxy-4-methoxy-4′-t-butylpicolinanilide]: the pest or weed control at 100 ppm lay in the range of 80 to 100%.

Take `COc1ccnc(C(=O)Nc2ccc(OCc3ccccc3)cc2)c1O` [Example 39, 3-Hydroxy-4-methoxy-4′-benzyloxypicolinanilide]: the pest or weed control at 100 ppm is 80 to 100%.

On to `COc1ccnc(C(=O)NC2CCCC2)c1O` [Example 79, 3-Hydroxy-4-methoxy-N-cyclopentylpicolinamide], for which the pest or weed control at 100 ppm was 80 to 100%.

Regarding `CCC(C)NC(=O)c1nccc(OC)c1O` (stereo not shown) [Example 82, 3-Hydroxy-4-methoxy-N-(sec-butyl)picolinamide], the pest or weed control at 100 ppm fell in the range of 80 to 100%.

As to `CCCCCCCCNC(=O)c1nccc(OC)c1O` [Example 86, 3-Hydroxy-4-methoxy-N-(n-octyl)picolinamide], the pest or weed control at 100 ppm lay in the range of 80 to 100%.

With `COc1ccnc(C(=O)Nc2cc(F)cc(F)c2)c1O` [Example 122, 3-Hydroxy-4-methoxy-3′,5′-difluoropicolinanilide], the pest or weed control at 100 ppm is 80 to 100%.

These data come from patent US7183278B1 (priority 1998, dated 2007).
